Measurements reported in patent publication US20240246977A1, “DEGRADATION OF BRUTON'S TYROSINE KINASE (BTK) BY CONJUGATION OF BTK INHIBITORS WITH E3 LIGASE LIGAND AND METHOD OF USE” (BeiGene Switzerland GmbH, priority 2021, published 2024).
pIC50: −log10 of the molar value.

Key:
HEK-293 cells = test: HEK-293 cytotoxicity detection (CellTiter-Glo); assay type: cell-based; conditions: Homo sapiens, 72 h, 72 h incubation, CellTiter-Glo luminescence, read-out: HEK293
Summary of the method: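 HEK-293 cells exposed 72 h to 8 compounds doses (4-fold dilutions, top stock 5 mM at 500×) in 0.2% DMSO. Viability by CellTiter-Glo luminescence; inhibition normalised to DMSO high control and low control, IC50 from four-parameter curve fit.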

BTK = BTK (Homo sapiens, UniProt Q06187); test: BTK cell degradation in TMD-8 cells, HTRF assay; assay type: cell-based; design: endogenous in cells; host or cells: TMD-8 cells; conditions: 6 h treatment, IC50 (DC50) of BTK degradation
Chain of BTK (Q06187 whole entry): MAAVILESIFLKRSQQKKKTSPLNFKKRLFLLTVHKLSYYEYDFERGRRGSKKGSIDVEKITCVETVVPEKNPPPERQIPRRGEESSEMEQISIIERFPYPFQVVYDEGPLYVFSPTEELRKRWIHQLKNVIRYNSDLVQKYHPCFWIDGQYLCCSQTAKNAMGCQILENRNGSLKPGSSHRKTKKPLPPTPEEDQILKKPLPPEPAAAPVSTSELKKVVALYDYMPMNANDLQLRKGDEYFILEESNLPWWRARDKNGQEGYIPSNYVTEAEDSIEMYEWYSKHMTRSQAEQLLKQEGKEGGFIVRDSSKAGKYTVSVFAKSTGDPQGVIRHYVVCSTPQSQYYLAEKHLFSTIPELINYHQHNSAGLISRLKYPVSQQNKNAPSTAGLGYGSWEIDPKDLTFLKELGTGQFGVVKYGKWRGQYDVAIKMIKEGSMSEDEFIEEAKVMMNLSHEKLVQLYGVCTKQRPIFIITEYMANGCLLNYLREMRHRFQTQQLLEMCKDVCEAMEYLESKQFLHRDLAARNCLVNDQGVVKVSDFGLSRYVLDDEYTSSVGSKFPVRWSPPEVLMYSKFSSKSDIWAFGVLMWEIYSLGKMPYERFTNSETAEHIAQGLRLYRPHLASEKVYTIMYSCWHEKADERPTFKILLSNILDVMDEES
Summary of the method: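 TMD-8 cells treated 6 h with 8-dose series (6-fold dilutions, 0.2% DMSO final), then lysed and BTK quantified by HTRF (337/665/620 nm) after overnight antibody incubation at room temperature. Degradation normalized to DMSO high and low controls; DC50 and Dmax from four-parameter fit.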

Structure (SMILES) | DC50 (BTK) | pIC50 (HEK-293 cells)
Cc1cccc(NC(=O)c2ccc(-c3nn4c(c3C(N)=O)Nc3ccc(N5CCN(CC6CCN(c7ccc(N8CCC(=O)N(CC(=O)OC(C)(C)C)C8=O)cc7)CC6)CC5)cc3CC4)c(F)c2C)n1 [Example B76, tert-butyl 2-(3-(4-(4-((4-(3-carbamoyl-2-(2-fluoro-3-methyl-4-((6-methylpyridin-2-yl)carbamoyl)phenyl)-9,10-dihydro-4H-benzo[d]pyrazolo[1,5-a][1,3]diazepin-7-yl)piperazin-1-yl)methyl)piperidin-1-yl)phenyl)-2,6-dioxotetrahydropyrimidin-1(2H)-yl)acetate] | > 2000 nM | < 5.00
NC(=O)c1c(-c2ccc(Oc3ccccc3)cc2)nn2c1Nc1ccc(C3CCN(CCC4CCN(c5ccc(N6CCC(=O)NC6=O)cc5)CC4)CC3)cc1CC2 [Example A28, 7-(1-(2-(1-(4-(2,4-dioxotetrahydropyrimidin-1(2H)-yl)phenyl)piperidin-4-yl)ethyl)piperidin-4-yl)-2-(4-phenoxyphenyl)-9,10-dihydro-4H-benzo[d]pyrazolo[1,5-a][1,3]diazepine-3-carboxamide] | 2.01 nM | 7.09
NC(=O)c1c(-c2ccc(Oc3ccccc3)cc2)nn2c1Nc1ccc(NC(=O)C3CCN(c4cccc5c4C(=O)N(C4CCC(=O)NC4=O)C5=O)CC3)cc1CC2 (stereo not shown) [Example A11, 7-(1-(2-(2,6-dioxopiperidin-3-yl)-1,3-dioxoisoindolin-4-yl)piperidine-4-carboxamido)-2-(4-phenoxyphenyl)-9,10-dihydro-4H-benzo[d]pyrazolo[1,5-a][1,3]diazepine-3-carboxamide] | 5.71 nM | 6.08
NC(=O)c1c(-c2ccc(Oc3ccccc3)cc2)nn2c1Nc1ccc(NC(=O)C3CCN(c4ccc5c(c4)C(=O)N(C4CCC(=O)NC4=O)C5=O)CC3)cc1CC2 (stereo not shown) [Example A1, 7-(1-(2-(2,6-dioxopiperidin-3-yl)-1,3-dioxoisoindolin-5-yl)piperidine-4-carboxamido)-2-(4-phenoxyphenyl)-9,10-dihydro-4H-benzo[d]pyrazolo[1,5-a][1,3]diazepine-3-carboxamide] | 3 nM | 6.38
Cc1c(C(=O)Nc2ccc3[nH]ccc3n2)ccc(-c2nn3c(c2C(N)=O)Nc2ccc(N4CCN(CC5CCN(c6ccc(N7CCC(=O)NC7=O)cc6)CC5)CC4)cc2CC3)c1F [Example B45, 2-(4-((1H-pyrrolo[3,2-b]pyridin-5-yl)carbamoyl)-2-fluoro-3-methylphenyl)-7-(4-((1-(4-(2,4-dioxotetrahydropyrimidin-1(2H)-yl)phenyl)piperidin-4-yl)methyl)piperazin-1-yl)-9,10-dihydro-4H-benzo[d]pyrazolo[1,5-a][1,3]diazepine-3-carboxamide] | 1.69 nM | < 5.00
CCOc1ccnc(NC(=O)c2ccc(-c3nn4c(c3C(N)=O)Nc3ccc(N5CCN(CC6CCN(c7ccc(N8CCC(=O)NC8=O)cc7)CC6)CC5)cc3CC4)c(F)c2C)c1 [Example B51, 7-(4-((1-(4-(2,4-dioxotetrahydropyrimidin-1(2H)-yl)phenyl)piperidin-4-yl)methyl)piperazin-1-yl)-2-(4-((4-ethoxypyridin-2-yl)carbamoyl)-2-fluoro-3-methylphenyl)-9,10-dihydro-4H-benzo[d]pyrazolo[1,5-a][1,3]diazepine-3-carboxamide] | 7.39 nM | 6.54
Cc1cccc(NC(=O)c2ccc(-c3nn4c(c3C(N)=O)Nc3ccc(N5CCN(C6CC(c7ccc(N[C@H]8CCC(=O)NC8=O)cc7)C6)CC5)cc3CC4)c(F)c2C)n1 (stereo partly drawn) [Example B72, (S)-7-(4-(3-(4-((2,6-dioxopiperidin-3-yl)amino)phenyl)cyclobutyl)piperazin-1-yl)-2-(2-fluoro-3-methyl-4-((6-methylpyridin-2-yl)carbamoyl)phenyl)-9,10-dihydro-4H-benzo[d]pyrazolo[1,5-a][1,3]diazepine-3-carboxamide] | 6.23 nM | < 5.00
Cc1ccnc(NC(=O)c2ccc(-c3nn4c(c3C(N)=O)Nc3ccc(N5CCN(CC6CCN(c7ccc(N8CCC(=O)NC8=O)cc7)CC6)CC5)cc3CC4)cc2)c1 [Example B10, 7-(4-((1-(4-(2,4-dioxotetrahydropyrimidin-1(2H)-yl)phenyl)piperidin-4-yl)methyl)piperazin-1-yl)-2-(4-((4-methylpyridin-2-yl)carbamoyl)phenyl)-9,10-dihydro-4H-benzo[d]pyrazolo[1,5-a][1,3]diazepine-3-carboxamide] | 4.69 nM | < 5.00
NC(=O)c1c(-c2ccc(Oc3ccccc3)cc2)nn2c1Nc1ccc(N3CCN(CC4CCN(c5ccc(N6CCC(=O)NC6=O)cc5)CC4)CC3)cc1CC2 [Example A21, 7-(4-((1-(4-(2,4-dioxotetrahydropyrimidin-1(2H)-yl)phenyl)piperidin-4-yl)methyl)piperazin-1-yl)-2-(4-phenoxyphenyl)-9,10-dihydro-4H-benzo[d]pyrazolo[1,5-a][1,3]diazepine-3-carboxamide] | 1.51 nM | 7.21
NC(=O)c1c(-c2ccc(Oc3ccccc3)cc2)nn2c1Nc1ccc(CCC3CCN(c4ccc(NC5CCC(=O)NC5=O)cc4)CC3)cc1CC2 (stereo not shown) [Example A26, 7-(2-(1-(4-((2,6-dioxopiperidin-3-yl)amino)phenyl)piperidin-4-yl)ethyl)-2-(4-phenoxyphenyl)-9,10-dihydro-4H-benzo[d]pyrazolo[1,5-a][1,3] diazepine-3-carboxamide] | 16 nM | 6.55
NC(=O)c1c(-c2ccc(Oc3ccccc3)cc2F)nn2c1Nc1ccc(N3CCN(CC4CCN(c5ccc(N6CCC(=O)NC6=O)cc5)CC4)CC3)cc1CC2 [Example A37, 7-(4-((1-(4-(2,4-dioxotetrahydropyrimidin-1(2H)-yl)phenyl)piperidin-4-yl)methyl)piperazin-1-yl)-2-(2-fluoro-4-phenoxyphenyl)-9,10-dihydro-4H-benzo[d]pyrazolo[1,5-a][1,3]diazepine-3-carboxamide] | 4.71 nM | 7.16

More lines, main results first:

DC50 (BTK) | Structure (SMILES) | pIC50 (HEK-293 cells)
2.32 nM | Cc1c(C(=O)Nc2ncn(C)n2)ccc(-c2nn3c(c2C(N)=O)Nc2ccc(N4CCN(CC5CCN(c6ccc(N7CCC(=O)NC7=O)cc6)CC5)CC4)cc2CC3)c1F [Example B84, 7-(4-((1-(4-(2,4-dioxotetrahydropyrimidin-1(2H)-yl)phenyl)piperidin-4-yl)methyl)piperazin-1-yl)-2-(2-fluoro-3-methyl-4-((1-methyl-1H-1,2,4-triazol-3-yl)carbamoyl)phenyl)-9,10-dihydro-4H-benzo[d]pyrazolo[1,5-a][1,3]diazepine-3-carboxamide] | < 5.00
3.36 nM | COc1ccc(C(F)(F)F)cc1C(=O)NCc1ccc(-c2nn3c(c2C(N)=O)Nc2ccc(N4CCN(CC5CCN(c6ccc(N7CCC(=O)NC7=O)cc6)CC5)CC4)cc2CC3)cc1C [Example C11, 7-(4-((1-(4-(2,4-dioxotetrahydropyrimidin-1(2H)-yl)phenyl)piperidin-4-yl)methyl)piperazin-1-yl)-2-(4-((2-methoxy-5-(trifluoromethyl)benzamido)methyl)-3-methylphenyl)-9,10-dihydro-4H-benzo[d]pyrazolo[1,5-a][1,3]diazepine-3-carboxamide] | < 5.00
1.36 nM | Cc1c(C(=O)Nc2cn(C)cn2)ccc(-c2nn3c(c2C(N)=O)Nc2ccc(N4CCN(C(=O)C5CCN(c6ccc(N7CCC(=O)NC7=O)cc6)CC5)CC4)cc2CC3)c1F [Example B91, 7-(4-(1-(4-(2,4-dioxotetrahydropyrimidin-1(2H)-yl)phenyl)piperidine-4-carbonyl)piperazin-1-yl)-2-(2-fluoro-3-methyl-4-((1-methyl-1H-imidazol-4-yl)carbamoyl)phenyl)-9,10-dihydro-4H-benzo[d]pyrazolo[1,5-a][1,3]diazepine-3-arboxamide] | < 5.00
> 2000 nM | Cc1cccc(N(CC(=O)OCc2ccccc2)C(=O)c2ccc(-c3nn4c(c3C(N)=O)Nc3ccc(N5CCN(CC6CCN(c7ccc(N8CCC(=O)N(CC(=O)OCc9ccccc9)C8=O)cc7)CC6)CC5)cc3CC4)c(F)c2C)n1 [Example B81, benzyl 2-(3-(4-(4-((4-(2-(4-((2-(benzyloxy)-2-oxoethyl)(6-methylpyridin-2-yl)carbamoyl)-2-fluoro-3-methylphenyl)-3-carbamoyl-9,10-dihydro-4H-benzo[d]pyrazolo[1,5-a][1,3]diazepin-7-yl)piperazin-1-yl)methyl)piperidin-1-yl)phenyl)-2,6-dioxotetrahydropyrimidin-1(2H)-yl)acetate] | 7.25
1.87 nM | Cc1c(C(=O)Nc2nc(C(F)(F)F)n[nH]2)ccc(-c2nn3c(c2C(N)=O)Nc2ccc(N4CCN(CC5CCN(c6ccc(N7CCC(=O)NC7=O)cc6)CC5)CC4)cc2CC3)c1F [Example B85, 7-(4-((1-(4-(2,4-dioxotetrahydropyrimidin-1(2H)-yl)phenyl)piperidin-4-yl)methyl)piperazin-1-yl)-2-(2-fluoro-3-methyl-4-((3-(trifluoromethyl)-1H-1,2,4-triazol-5-yl)carbamoyl)phenyl)-9,10-dihydro-4H-benzo[d]pyrazolo[1,5-a][1,3]diazepine-3-carboxamide] | < 5.00
55.1 nM | CCC(Nc1cc(C(F)(F)F)ccn1)c1ccc(-c2nn3c(c2C(N)=O)Nc2ccc(N4CCN(CC5CCN(c6ccc(N7CCC(=O)NC7=O)cc6)CC5)CC4)cc2CC3)cc1 (stereo not shown) [Example C17, 7-(4-((1-(4-(2,4-dioxotetrahydropyrimidin-1(2H)-yl)phenyl)piperidin-4-yl)methyl)piperazin-1-yl)-2-(4-(1-((4-(trifluoromethyl)pyridin-2-yl)amino)propyl)phenyl)-9,10-dihydro-4H-benzo[d]pyrazolo[1,5-a][1,3]diazepine-3-carboxamide] | < 5.00
